Data set [1] deals with T1, human RAD51 protein (Homo sapiens, UniProt Q06609).
T1 sequence (Q06609 1-339): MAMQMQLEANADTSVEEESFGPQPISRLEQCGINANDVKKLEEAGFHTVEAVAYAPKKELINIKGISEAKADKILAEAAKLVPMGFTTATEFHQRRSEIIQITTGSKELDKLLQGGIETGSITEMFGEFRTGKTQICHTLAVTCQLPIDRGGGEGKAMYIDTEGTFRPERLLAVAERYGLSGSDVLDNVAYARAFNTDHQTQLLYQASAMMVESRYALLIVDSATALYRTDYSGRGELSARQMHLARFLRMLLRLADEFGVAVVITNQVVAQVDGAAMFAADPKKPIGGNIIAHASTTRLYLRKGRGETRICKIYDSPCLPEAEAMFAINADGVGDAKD
The data set can be described thus: FP-based DNA binding assay. To be noted: compound 59 μM, 0.23 μM RAD51 (Figure 2B).

The next data set concerns HEK293 cells. Description: Sensitization of cells to MMC. Type of data set: cell-based, human. The following applies: HEK293, varying MMC 24 hours then compound 24 hours (Figure 4).
A short description of data set [2]: Glutathione stability / reactivity experiment. The class given is physicochemical. To be noted: 37 °C, DMSO, five-fold molar excess of glutathione, HPLC, up to 24 hours.
Data set [3] deals with HR repair in HEK293 cells. Description: HR repair efficiency, DR-GFP reporter. Type of data set: cell-based, human. To be noted: 24 hours.
Data set [4] deals with single-strand annealing (SSA) in HEK293 cells. The data set can be described thus: SSA repair efficiency, SA-GFP reporter. To be noted: 24 hours. The class given is cell-based, human.
The subject of data set [5] is human cells. The following applies: requires long (>10 hour) pre-incubation of cells with compound; cited from earlier work.
For data set [6], the target named is T1, human RAD51 protein. The data set can be described thus: DNA binding competition. To be noted: 10 μM compound prior to washing (Figure 2C).
Data set [7] concerns human cells. The following applies: cited from earlier work.
Setting [8] is: 60 μM, compared with 1 at 20 μM.

Structures are written as SMILES.

Turning to `COc1ccc(C2=C(N3CCOCC3)C(=O)N(c3ccc(Cl)c(Cl)c3)C2=O)cc1` [7a, 1-(3,4-dichlorophenyl)-3-(4-methoxyphenyl)-4-morpholino-1H-pyrrole-2,5-dione], at human RAD51 protein [1], the “time dependence of inhibition of RAD51 DNA binding activity” value is given as “did not observe any time-dependent increase”. In addition, the “sensitization of cells to MMC” value in the data set with HEK293 cells is “significant sensitization of cells”. The reactivity with glutathione result in data set [2] is “no reactivity”. The “effect on HR efficiency” value in data set [3] (setting [8]) was “very similar effects”. Besides, in data set [4] (setting [8]), the “effect on SSA efficiency” value was “very similar effects”.

`O=c1c2ccccc2nc(/C=C/c2cccnc2)n1Cc1ccccc1` [B02]: in the data set on human cells [5], the “sensitization of cells to cross-linking chemotherapeutic drugs” value is on record as “does successfully sensitize cells”.

On to `O=C1C(Cl)=C(N2CCOCC2)C(=O)N1c1ccc(Cl)c(Cl)c1` [compound 1], for which, on human RAD51 protein [1], the “time dependence of inhibition of RAD51 DNA binding activity” value is listed as “time-dependent”. In the data set on HEK293 cells, the “sensitization of cells to MMC” value is reported as “significant sensitization of cells”. The “effect on HR efficiency” value in data set [3] (20 μM) was “inhibition of HR”. Also, the “effect on SSA efficiency” value in data set [4] (20 μM) is “stimulation of SSA”. In addition, on human RAD51 protein [6], the “RAD51 DNA binding activity after compound treatment on beads and washing” value is on record as “significantly inactivated”.

As for `C[C@@]12CCC(=O)c3coc(c31)C(=O)c1cc3c(cc12)C(=O)C=CC3=O` [halenaquinone], the “sensitization of cells to ionizing radiation” value in the data set with human cells [7] is recorded as “not capable of sensitizing cells to ionizing radiation”.

The values are drawn from article PMC3619390 (Journal of medicinal chemistry, 2012).
